Assay results as given in patent publication US20170202787A1, “TREATMENT OF CHRONIC OBSTRUCTIVE PULMONARY DISEASE WITH NEBULIZED BETA 2-AGONIST OR COMBINED NEBULIZED BETA 2-AGONIST AND ANTICHOLINERGIC ADMINISTRATION” (Sunovion Respiratory Development, Inc., priority 2009, published 2017).
Structures can show the parent of a compound that is named as a salt. Where two headings read alike, the source gives them in different places.

Assays:
[1] = not given; remark: listed apart in the source
[2] = approved twice-daily dosing in COPD; cited from earlier work
[3] = nebulized, clinical trial in COPD; cited from earlier work
[4] = not given; remark: listed apart in the source
[5] = not given; remark: listed apart in the source
[6] = high efficiency nebulizer
[7] = Example 6: randomized, cross-over, single dose study of nebulized salmeterol in healthy volunteers
[8] = conventional nebulizer, same or higher dose
[9] = lower dose, high efficiency nebulizer

COc1ccc(CC(C)NCC(O)c2ccc(O)c(NC=O)c2)cc1 (racemic) [formoterol]
duration of clinically meaningful bronchodilation [8]: less than 24 hours | duration of clinically meaningful bronchodilation (high efficiency nebulizer): at least 24 hours | duration of clinically meaningful bronchodilation [1, 8]: less than 24 hours | duration of clinically meaningful bronchodilation ([1]; high efficiency nebulizer): at least 24 hours

COc1ccc(C[C@@H](C)NC[C@H](O)c2ccc(O)c(NC=O)c2)cc1 [arformoterol tartrate]
duration of clinically meaningful bronchodilation with acceptable side effects [2]: 12 h | duration of clinically meaningful bronchodilation [3]: 24 h | side effects at the dosing giving 24 hours of bronchodilation [3]: unacceptable side effects

COc1ccc(C[C@@H](C)NC[C@H](O)c2ccc(O)c(NC=O)c2)cc1 [arformoterol, R,R-formoterol]
duration of clinically meaningful bronchodilation [4, 8]: less than 24 hours | duration of clinically meaningful bronchodilation ([4]; high efficiency nebulizer): at least 24 hours | duration of clinically meaningful bronchodilation [5, 8]: less than 24 hours | duration of clinically meaningful bronchodilation ([5]; high efficiency nebulizer): at least 24 hours | adverse event profile compared to a comparable or lower dose with a conventional nebulizer [6]: improved adverse event profile | lung deposition compared to a comparable or higher dose with a conventional nebulizer [6]: higher degree of lung deposition

COc1ccc(C[C@@H](C)NC[C@H](O)c2ccc(O)c(NC=O)c2)cc1.COc1ccc(C[C@@H](C)NC[C@H](O)c2ccc(O)c(NC=O)c2)cc1.O=C(O)/C=C/C(=O)O [formoterol fumarate]
duration of clinically meaningful bronchodilation with acceptable side effects [2]: 12 h

OCc1cc(C(O)CNCCCCCCOCCCCc2ccccc2)ccc1O (centres unmarked) [salmeterol xinafoate]
duration of clinically meaningful bronchodilation with acceptable side effects [2]: 12 h

OCc1cc(C(O)CNCCCCCCOCCCCc2ccccc2)ccc1O (centres unmarked) [salmeterol]
duration of clinically meaningful bronchodilation ([7]; high efficiency nebulizer): at least 24 hours | period of time of therapeutic effect ([7]; high efficiency nebulizer, tested doses): 12 to 24 h | adverse event profile / side effects (serum potassium, glucose) compared to a selected dose with a conventional nebulizer [7, 9]: improved adverse event profile and/or improved side effects | therapeutic effects compared to a selected dose with a conventional nebulizer [7, 9]: improved or similar therapeutic effects | duration of clinically meaningful bronchodilation ([7]; same dose with conventional nebulizer, metered dose inhaler, or dry powder inhaler): less than 24 hours
